Measurements published in patent publication US20260242393A1, “Preparation Method for and Use of Dihydrothienopyrimidine Derivative” (Innovstone Therapeutics Limited, priority 2023, published 2026).
Like-named read-outs stand apart in the source and are kept apart here.

Legend:
[1] = target: T1, PDE4B2 (Homo sapiens, UniProt Q07343); assay: In vitro PDE4B2 enzyme inhibitory activity (AMP-Glo); format: biochemical
T1 construct: purchased BPS bioscience

[2] = Pharmacokinetic assay in mice, plasma concentration by LC-MS/MS; format: in vivo, CD-1 male mice; conditions: male, CD-1, mouse
Protocol: Assay 2: Pharmacokinetic Assay by Using LC-MS/MS to Determine the Compound Concentration in Mice
Assay principle: LC-MS/MS was used to determine the drug concentration of the target drug in plasma at different times, and to plot the pharmacokinetic curve of the target compound in vivo.
An accurately weighed amount of the test compound was dissolved in 5% DMSO (INNOCHEM, INBZZHCAE) by vortex mixing. Subsequently, 10% Solutol (BASF, 75389809T0) was added and homogenized by vortexing.
Finally, 85% saline (Fengyuan, 220505102) was incorporated with vortex mixing to achieve dosing formulations at 0.4 mg/mL and 1.0 mg/mL.
The mice were sourced from CD-1 male mice (JH Laboratory Animal Co. LTD), with three mice for each group.
The mice were administered with 2 mg/kg intravenously (IV) or 10 mg/kg by oral gavage (PO). The blood samples were collected at 5 min (IV group only), 15 min, 30 min, 1 h, 2 h, 4h, 8h, and 24h (PO group only) after administration.
Approximately 30 μL blood samples were collected at each time point and placed into anticoagulant tubes containing EDTA-K2 anticoagulant. Plasma was obtained by centrifugation within 30 minutes. Whole blood samples before centrifugation were placed on wet ice. For each test compound, 42 plasma samples were collected.
All collected plasma samples were stored on dry ice or in a freezer until analysis. The drug concentration was determined using a Triple-quadrupole MS system (SCIEX), including standard curve and quality control preparation, and sample preparation.
Standard curve and quality control preparation: a working solution was prepared by ACN:H2O (1:1) dilution, and 3 μL of the above standard curve and quality control working solution was added to 57 μL of blank plasma.
Sample preparation: 7 μL of plasma sample was added to 70 μL of internal standard solution (Propranolol, Tolbutamide, Glipizide, Osalmid, each 200 ng/mL in ACN). The mixture was mixed for 5 minutes and centrifuged at 4000 rpm for 10 minutes. 50 μL of supernatant was taken and transferred to a new plate containing 200 μL ultrapure water for sample analysis.
Chromatographic conditions were optimized for each sample, regarding mobile phase composition, elution gradient conditions, flow rate, retention time, etc. The chromatographic column was Waters Acquity UPLC HSS T3 1.8 μm, 2.1×50 mm. The injection volume was 2 μL.
An electrospray ionization source was used in mass spectrometry. In the positive ion detection mode, the multi-channel reaction monitoring (MRM) mode was selected for secondary mass spectrometry analysis.
Based on the drug concentration-time data, pharmacokinetic parameters were calculated using WinNonlin 8.2 software according to a non-compartmental model, including peak concentration Cmax, peak time Tmax, area under the drug-time curve AUC, and elimination half-life t1/2. The AUC was calculated using the linear trapezoidal method (linear up log down).

[3] = PDE4B2 enzyme inhibition, read-out: PDE4B2 IC50
[4] = read-out: IC50 values of PDE4B2 enzyme inhibition

T1 sequence (Q07343 1-564 isoform Q07343-2): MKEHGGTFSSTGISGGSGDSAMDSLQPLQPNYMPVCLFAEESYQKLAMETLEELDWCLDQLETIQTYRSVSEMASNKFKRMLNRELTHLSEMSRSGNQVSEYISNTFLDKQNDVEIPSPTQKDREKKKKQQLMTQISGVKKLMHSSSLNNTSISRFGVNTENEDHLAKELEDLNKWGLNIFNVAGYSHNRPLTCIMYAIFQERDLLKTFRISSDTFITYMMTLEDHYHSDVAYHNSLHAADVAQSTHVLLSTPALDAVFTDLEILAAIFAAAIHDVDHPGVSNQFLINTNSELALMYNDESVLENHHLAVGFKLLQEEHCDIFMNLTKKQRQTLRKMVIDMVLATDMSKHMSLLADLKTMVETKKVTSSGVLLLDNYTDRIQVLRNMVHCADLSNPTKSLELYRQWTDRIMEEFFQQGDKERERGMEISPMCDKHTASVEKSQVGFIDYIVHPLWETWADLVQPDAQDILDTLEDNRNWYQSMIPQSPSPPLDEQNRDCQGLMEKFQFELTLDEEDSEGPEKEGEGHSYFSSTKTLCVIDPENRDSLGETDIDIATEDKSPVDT

Row | Structure (SMILES) | IC50 [1, 3] | AUC(0-inf) ([2]; IV, 2 mg/kg) | clearance ([2]; IV, 2 mg/kg) | half-life ([2]; IV, 2 mg/kg) | AUC(0-inf) ([2]; PO, 10 mg/kg) | Cmax ([2]; PO, 10 mg/kg) | Tmax ([2]; PO, 10 mg/kg) | IC50 [1, 4]
1 | [O-][S+]1CCc2nc(N3Cc4ccc(Cl)cc4C3)nc(NC3(CO)CCC3)c21 (racemic) [Compound 25, (R/S)-2-(5-chloroisoindolin-2-yl)-4-((1-(hydroxymethyl)cyclobutyl)amino)-6,7-dihydrothieno[3,2-d]pyrimidine 5-oxide] | 2 to 5 nM | 17600 ng·h/mL | 2.4 mL/min/kg | 301 min | 23100 ng·h/mL | 5950 ng/mL | 79.8 min | –
2 | COC1(c2ccc(OC(F)F)cc2)CN(c2nc3c(c(NC4(CO)CCC4)n2)[S+]([O-])CC3)C1 (racemic) [Compound 105, (R/S)-2-(3-(4-(difluoromethoxy)phenyl)-3-methoxyazetidin-1-yl)-4-((1-(hydroxymethyl)cyclobutyl)amino)-6,7-dihydrothieno[3,2-d]pyrimidine 5-oxide] | ≤ 2 nM | – | – | – | – | – | – | < 1 nM
3 | COC1(c2ccc(OCC3CC3)cc2)CN(c2nc3c(c(NC4(CO)CCC4)n2)[S+]([O-])CC3)C1 (racemic) [Compound 106, (R/S)-2-(3-(4-(cyclopropylmethoxy)phenyl)-3-methoxyazetidin-1-yl)-4-((1-(hydroxymethyl)cyclobutyl)amino)-6,7-dihydrothieno[3,2-d]pyrimidine 5-oxide] | ≤ 2 nM | – | – | – | – | – | – | –
4 | COC1(c2ccc(N3CCCC3)cc2)CN(c2nc3c(c(NC4(CO)CCC4)n2)[S+]([O-])CC3)C1 (racemic) [Compound 107, (R/S)-4-((1-(hydroxymethyl)cyclobutyl)amino)-2-(3-methoxy-3-(4-(pyrrolidin-1-yl)phenyl)azetidin-1-yl)-6,7-dihydrothieno[3,2-d]pyrimidine 5-oxide] | ≤ 2 nM | – | – | – | – | – | – | < 1 nM
5 | COc1ccc(C2(OC)CN(c3nc4c(c(NC5CCOCC5)n3)[S+]([O-])CC4)C2)cc1 (racemic) [Compound 108, (R/S)-2-(3-methoxy-3-(4-methoxyphenyl)azetidin-1-yl)-4-((tetrahydro-2H-pyran-4-yl)amino)-6,7-dihydrothieno[3,2-d]pyrimidine 5-oxide] | ≤ 2 nM | – | – | – | – | – | – | < 1 nM
6 | COC1(c2ccc(N(C)C)cc2)CN(c2nc3c(c(NC4(CO)CCC4)n2)[S+]([O-])CC3)C1 (racemic) [Compound 109, (R/S)-2-(3-(4-(dimethylamino)phenyl)-3-methoxyazetidin-1-yl)-4-((1-(hydroxymethyl)cyclobutyl)amino)-6,7-dihydrothieno[3,2-d]pyrimidine 5-oxide] | ≤ 2 nM | – | – | – | – | – | – | < 1 nM

The next lines start with the values.

Row | IC50 [1, 3] | AUC(0-inf) ([2]; IV, 2 mg/kg) | clearance ([2]; IV, 2 mg/kg) | half-life ([2]; IV, 2 mg/kg) | AUC(0-inf) ([2]; PO, 10 mg/kg) | Cmax ([2]; PO, 10 mg/kg) | Tmax ([2]; PO, 10 mg/kg) | IC50 [1, 4] | Structure (SMILES)
7 | ≤ 2 nM | – | – | – | – | – | – | – | CNc1ccc(C2(OC)CN(c3nc4c(c(NC5(CO)CCC5)n3)[S+]([O-])CC4)C2)cc1 (racemic) [Compound 112, (R/S)-4-((1-(hydroxymethyl)cyclobutyl)amino)-2-(3-methoxy-3-(4-(methylamino)phenyl)azetidin-1-yl)-6,7-dihydrothieno[3,2-d]pyrimidine 5-oxide]
8 | 20 to 50 nM | 2900 ng·h/mL | 11.8 mL/min/kg | 94.2 min | 12100 ng·h/mL | 2250 ng/mL | 30 min | – | [O-][S+]1CCc2nc(N3CCC(c4ncc(Cl)cn4)CC3)nc(NC3(CO)CCC3)c21 (stereo not drawn) [Control 1, reference compound]
